Consider 1 compound from patent US20080194614A1, “Combination of Organic Compounds” (priority 2005, published 2008).

Series [1] can be described thus: 4-week toxicity study in rats. It is filed as in vivo. The protocol:
(§1) Rapamycin or derivatives thereof are well tolerated at dosages required for use in accordance with the present invention. For example, the NTEL for Compound A in a 4-week toxicity study is 0.5 mg/kg/day in rats and 1.5 mg/kg/day in monkeys.

The nature of series [2]: 4-week toxicity study in monkeys. The class given is in vivo. The protocol:
as §1

Regarding `CO[C@H]1C[C@@H]2CC[C@@H](C)[C@@](O)(O2)C(=O)C(=O)N2CCCC[C@H]2C(=O)O[C@H]([C@H](C)C[C@@H]2CC[C@@H](OCCO)[C@H](OC)C2)CC(=O)[C@H](C)/C=C(\C)[C@@H](O)[C@@H](OC)C(=O)[C@H](C)C[C@H](C)/C=C/C=C/C=C/1C` [Compound A, 40-0-(2-hydroxyethyl)-rapamycin], the NTEL in series [1] was 0.5 mg/kg/day; in series [2], 1.5 mg/kg/day.
